Each structure is given as a SMILES string. Activity calls are given as the source filed them. The calls are words filed in the database; no cut-off is given here.

We go through seven compounds from ChEMBL document CHEMBL4002626, “Identification of a selective inhibitor of transforming growth factor β-activated kinase 1 by biosensor-based screening of focused libraries” (Bioorg Med Chem Lett, 2017).

Data set [1] has as its target T1, Mitogen-activated protein kinase kinase kinase 7 (Homo sapiens) (UniProt O43318).
T1 sequence (whole entry): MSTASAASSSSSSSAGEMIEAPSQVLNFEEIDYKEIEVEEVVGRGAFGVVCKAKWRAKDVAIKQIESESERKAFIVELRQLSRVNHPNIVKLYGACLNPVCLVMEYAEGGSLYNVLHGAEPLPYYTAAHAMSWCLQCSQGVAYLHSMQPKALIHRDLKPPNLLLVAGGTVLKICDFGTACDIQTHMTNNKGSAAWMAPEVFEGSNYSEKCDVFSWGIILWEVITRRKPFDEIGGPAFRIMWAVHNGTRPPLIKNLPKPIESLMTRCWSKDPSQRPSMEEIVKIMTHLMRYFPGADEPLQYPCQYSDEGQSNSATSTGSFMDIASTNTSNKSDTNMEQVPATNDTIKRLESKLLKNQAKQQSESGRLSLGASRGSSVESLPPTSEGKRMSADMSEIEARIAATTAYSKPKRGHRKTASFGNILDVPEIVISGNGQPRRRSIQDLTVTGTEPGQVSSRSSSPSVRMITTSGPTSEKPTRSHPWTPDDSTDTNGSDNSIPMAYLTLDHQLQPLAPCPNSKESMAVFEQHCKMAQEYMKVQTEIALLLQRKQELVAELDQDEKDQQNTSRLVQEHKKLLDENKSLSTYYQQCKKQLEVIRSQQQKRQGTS
Kind of data set: Binding affinity to TAK1 (unknown origin) at 5 uM using spin-labeled probe by 1H NMR method.

The target in data set [2] is T1, Mitogen-activated protein kinase kinase kinase 7 (Homo sapiens). Briefly: Binding affinity to recombinant human biotinylated N-terminal GST-tagged TAK1 (1 to 303 residues) fused with TAB1 (437 to 504 residues) expressed in baculovirus infected sf9 cells at 250 uM in presence of adenosine by SPR assay. On the technique in general: Surface plasmon resonance follows binding to a sensor surface in real time, without labels.

Data set [3] addresses T2, Mitogen-activated protein kinase kinase kinase 7 (Homo sapiens, UniProt O43318).
T2 sequence (O43318 whole entry): T1 sequence (whole entry)
Briefly: Binding affinity to recombinant human biotinylated N-terminal GST-tagged autophosphorylated TAK1 (1 to 303 residues) fused with TAB1 (437 to 504 residues) expressed in baculovirus infected sf9 cells by SPR assay.

For data set [4], the target named is T2, Mitogen-activated protein kinase kinase kinase 7. Briefly: Binding affinity to recombinant human biotinylated N-terminal GST-tagged non-autophosphorylated TAK1 (1 to 303 residues) fused with TAB1 (437 to 504 residues) expressed in baculovirus infected sf9 cells by SPR assay.
Data set [5] is described as follows: Solubility of the compound in 50 mM phosphate buffer at pH 6.5 after 24 hrs by HPLC-UV spectrophotometric assay. It is filed as physicochemical.
For data set [6], the target named is BMP-2-inducible protein kinase (Homo sapiens) (UniProt Q9NSY1). Briefly: Inhibition of human BIKE (S34 to N329 residues) expressed in bacterial expression system at 1 uM by KINOMEscan assay.
A short description of data set [7]: Solubility of the compound in fasted state simulated intestinal fluid at pH 6.5 after 24 hrs by HPLC-UV spectrophotometric assay. It counts as physicochemical.
In data set [8] the target is T1, Mitogen-activated protein kinase kinase kinase 7 (Homo sapiens). Briefly: Binding affinity to recombinant human biotinylated N-terminal GST-tagged TAK1 (1 to 303 residues) fused with TAB1 (437 to 504 residues) expressed in baculovirus infected sf9 cells at 1 uM in presence of ATP by SPR assay.
Data set [9] deals with Epidermal growth factor receptor (Homo sapiens, UniProt P00533). Kind of data set: Inhibition of recombinant human N-terminal GST-tagged EGFR cytoplasmic domain (669 to 1210 residues) expressed in baculovirus expression system.
The target in data set [10] is Mast/stem cell growth factor receptor Kit (Homo sapiens, UniProt P10721). Briefly: Inhibition of recombinant human N-terminal GST-tagged KIT cytoplasmic domain (544 to 976 residues) expressed in baculovirus expression system.
A short description of data set [11]: Inhibition of PDGFR (unknown origin). On the set-up: species or system Homo sapiens.
In data set [12] the target is Receptor-type tyrosine-protein kinase FLT3 (Homo sapiens, UniProt P36888). Briefly: Inhibition of recombinant human N-terminal GST-tagged FLT3 cytoplasmic domain (564 to 993 residues) expressed in baculovirus expression system.
The target of data set [13] is Fibroblast growth factor receptor 2 (Homo sapiens, UniProt P21802). Briefly: Inhibition of recombinant human N-terminal GST-tagged FGFR2 cytoplasmic domain (399 to 821 residues) expressed in baculovirus expression system.
In data set [14] the target is Vascular endothelial growth factor receptor 2 (Homo sapiens, UniProt P35968). Briefly: Inhibition of recombinant human N-terminal GST-tagged KDR cytoplasmic domain (790 to 1356 residues) expressed in baculovirus expression system.
Data set [15] has as its target Tyrosine-protein kinase receptor UFO (Homo sapiens, UniProt P30530). Briefly: Inhibition of recombinant human N-terminal GST-tagged AXL cytoplasmic domain (464 to 885 residues) expressed in baculovirus expression system.
For data set [16], the target named is Macrophage-stimulating protein receptor (Homo sapiens, UniProt Q04912). Briefly: Inhibition of recombinant human N-terminal GST-tagged RON cytoplasmic domain (979 to 1400 residues) expressed in baculovirus expression system.
Data set [17] addresses Hepatocyte growth factor receptor (Homo sapiens, UniProt P08581). Kind of data set: Inhibition of recombinant human N-terminal GST-tagged MET cytoplasmic domain (956 to 1390 residues) expressed in baculovirus expression system.
Data set [18] concerns the target Epithelial discoidin domain-containing receptor 1 (Homo sapiens, UniProt Q08345). Kind of data set: Inhibition of recombinant human N-terminal GST-tagged DDR1 cytoplasmic domain (444 to 876 residues) expressed in baculovirus expression system.
For data set [19], the target named is Insulin-like growth factor 1 receptor (Homo sapiens, UniProt P08069). Kind of data set: Inhibition of recombinant human N-terminal GST-tagged IGF1R cytoplasmic domain (959 to 1367 residues) expressed in baculovirus expression system.
In data set [20] the target is Insulin receptor (Homo sapiens, UniProt P06213). Briefly: Inhibition of recombinant human N-terminal GST-tagged INSR cytoplasmic domain (1005 to 1310 residues) expressed in baculovirus expression system.
The target of data set [21] is Leukocyte tyrosine kinase receptor (Homo sapiens, UniProt P29376). Briefly: Inhibition of recombinant human N-terminal GST-tagged LTK cytoplasmic domain (498 to 796 residues) expressed in baculovirus expression system.
Data set [22] deals with Ephrin type-A receptor 2 (Homo sapiens, UniProt P29317). Kind of data set: Inhibition of recombinant human N-terminal GST-tagged EPHA2 cytoplasmic domain (572 to 976 residues) expressed in baculovirus expression system.
Data set [23] addresses Focal adhesion kinase 1 (Homo sapiens, UniProt Q05397). Kind of data set: Inhibition of recombinant human N-terminal GST-tagged FAK cytoplasmic domain (376 to 1052 residues) expressed in baculovirus expression system.
The target in data set [24] is Tyrosine-protein kinase Yes (Homo sapiens, UniProt P07947). Kind of data set: Inhibition of recombinant full length human N-terminal GST-tagged YES (1 to 543 residues) expressed in baculovirus expression system.
Data set [25] deals with Proto-oncogene tyrosine-protein kinase Src (Homo sapiens, UniProt P12931). Kind of data set: Inhibition of recombinant full length human N-terminal GST-tagged SRC (1 to 536 residues) expressed in baculovirus expression system.
Data set [26] addresses Tyrosine-protein kinase Fyn (Homo sapiens, UniProt P06241). Kind of data set: Inhibition of FYN (unknown origin).
For data set [27], the target named is Tyrosine-protein kinase Lyn (Homo sapiens, UniProt P07948). Kind of data set: Inhibition of LYN (unknown origin).
The target of data set [28] is Tyrosine-protein kinase Lck (Homo sapiens, UniProt P06239). Kind of data set: Inhibition of recombinant full length human N-terminal GST-tagged LCK (1 to 509 residues) expressed in baculovirus expression system.
For data set [29], the target named is Protein-tyrosine kinase 6 (Homo sapiens, UniProt Q13882). Kind of data set: Inhibition of recombinant full length human N-terminal GST-tagged BRK (2 to 451 residues) expressed in baculovirus expression system.
Data set [30] addresses Tyrosine-protein kinase ABL1 (Homo sapiens, UniProt P00519). Briefly: Inhibition of recombinant full length human N-terminal GST-tagged ABL (2 to 1130 residues) expressed in baculovirus expression system.
For data set [31], the target named is RAF proto-oncogene serine/threonine-protein kinase (Homo sapiens, UniProt P04049). Kind of data set: Inhibition of recombinant human N-terminal GST-tagged RAF1 catalytic domain (306 to 648 residues) expressed in baculovirus expression system.
Data set [32] concerns the target Dual specificity mitogen-activated protein kinase kinase 1 (Homo sapiens, UniProt Q02750). Kind of data set: Inhibition of MEK1 (unknown origin).
Data set [33] can be described thus: Inhibition of PKA (unknown origin). The arrangement: species or system Homo sapiens.
Data set [34] has as its target RAC-alpha serine/threonine-protein kinase (Homo sapiens, UniProt P31749). Kind of data set: Inhibition of recombinant human N-terminal GST-tagged AKT1 catalytic domain (104 to 480 residues) expressed in baculovirus expression system.
The target in data set [35] is Cyclin-dependent kinase 1 (Homo sapiens, UniProt P06493). Briefly: Inhibition of CDK1 (unknown origin).
Data set [36] addresses Cyclin-dependent kinase 2 (Homo sapiens, UniProt P24941). Kind of data set: Inhibition of CDK2 (unknown origin).
Data set [37] concerns the target Protein kinase C zeta type (Homo sapiens, UniProt Q05513). Briefly: Inhibition of recombinant full length human N-terminal GST-tagged PKCzeta (1 to 592 residues) expressed in baculovirus expression system.
Data set [38] has as its target Protein kinase C alpha type (Homo sapiens, UniProt P17252). Briefly: Inhibition of recombinant full length human N-terminal GST-tagged PKCalpha (1 to 351 residues) expressed in baculovirus expression system.
Data set [39] addresses T3, Protein kinase C beta type (Homo sapiens, UniProt P05771). Briefly: Inhibition of recombinant full length human N-terminal GST-tagged PKCbeta1 (1 to 671 residues) expressed in baculovirus expression system.
The target in data set [40] is T3, Protein kinase C beta type. Briefly: Inhibition of recombinant full length human N-terminal GST-tagged PKCbeta2 (1 to 673 residues) expressed in baculovirus expression system.
For data set [41], the target named is Aurora kinase A (Homo sapiens, UniProt O14965). Kind of data set: Inhibition of recombinant full length human N-terminal GST-tagged Aurora kinase-A (1 to 403 residues) expressed in baculovirus expression system.
For data set [42], the target named is Mitogen-activated protein kinase 14 (Homo sapiens, UniProt Q16539). Kind of data set: Inhibition of recombinant human N-terminal GST-tagged p38-alpha (9 to 352 residues) expressed in Escherichia coli expression system.
Mitogen-activated protein kinase 14, sequence (Q16539 whole entry, the tested form may be a part): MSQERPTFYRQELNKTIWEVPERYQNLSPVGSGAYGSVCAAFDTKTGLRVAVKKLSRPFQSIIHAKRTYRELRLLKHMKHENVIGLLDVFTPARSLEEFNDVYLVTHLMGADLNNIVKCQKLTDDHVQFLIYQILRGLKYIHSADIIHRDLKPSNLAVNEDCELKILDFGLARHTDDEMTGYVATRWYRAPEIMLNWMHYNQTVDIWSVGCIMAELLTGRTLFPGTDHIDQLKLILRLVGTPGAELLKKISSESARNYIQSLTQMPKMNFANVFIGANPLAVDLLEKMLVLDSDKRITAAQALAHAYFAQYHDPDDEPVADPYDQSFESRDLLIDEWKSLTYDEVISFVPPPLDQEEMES

T3 sequence (P05771 whole entry, the tested form may be a part): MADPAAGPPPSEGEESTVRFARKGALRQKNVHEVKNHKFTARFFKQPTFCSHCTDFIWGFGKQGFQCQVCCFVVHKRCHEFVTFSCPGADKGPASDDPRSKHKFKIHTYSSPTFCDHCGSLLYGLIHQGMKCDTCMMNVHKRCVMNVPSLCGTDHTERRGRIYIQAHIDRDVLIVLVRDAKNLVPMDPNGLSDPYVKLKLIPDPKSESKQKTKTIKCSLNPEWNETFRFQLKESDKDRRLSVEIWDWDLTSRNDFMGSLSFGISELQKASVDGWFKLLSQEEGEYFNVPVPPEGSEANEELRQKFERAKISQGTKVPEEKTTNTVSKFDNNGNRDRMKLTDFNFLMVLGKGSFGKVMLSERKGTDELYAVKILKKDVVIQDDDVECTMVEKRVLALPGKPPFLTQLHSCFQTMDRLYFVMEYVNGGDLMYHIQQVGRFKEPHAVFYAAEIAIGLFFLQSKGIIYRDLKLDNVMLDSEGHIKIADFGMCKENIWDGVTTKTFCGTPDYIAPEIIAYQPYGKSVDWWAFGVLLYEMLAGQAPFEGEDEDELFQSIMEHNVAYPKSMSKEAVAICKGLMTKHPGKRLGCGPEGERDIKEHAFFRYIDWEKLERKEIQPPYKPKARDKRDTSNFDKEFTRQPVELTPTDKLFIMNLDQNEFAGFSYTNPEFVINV
Insulin receptor, sequence (P06213 28-758 limits assumed): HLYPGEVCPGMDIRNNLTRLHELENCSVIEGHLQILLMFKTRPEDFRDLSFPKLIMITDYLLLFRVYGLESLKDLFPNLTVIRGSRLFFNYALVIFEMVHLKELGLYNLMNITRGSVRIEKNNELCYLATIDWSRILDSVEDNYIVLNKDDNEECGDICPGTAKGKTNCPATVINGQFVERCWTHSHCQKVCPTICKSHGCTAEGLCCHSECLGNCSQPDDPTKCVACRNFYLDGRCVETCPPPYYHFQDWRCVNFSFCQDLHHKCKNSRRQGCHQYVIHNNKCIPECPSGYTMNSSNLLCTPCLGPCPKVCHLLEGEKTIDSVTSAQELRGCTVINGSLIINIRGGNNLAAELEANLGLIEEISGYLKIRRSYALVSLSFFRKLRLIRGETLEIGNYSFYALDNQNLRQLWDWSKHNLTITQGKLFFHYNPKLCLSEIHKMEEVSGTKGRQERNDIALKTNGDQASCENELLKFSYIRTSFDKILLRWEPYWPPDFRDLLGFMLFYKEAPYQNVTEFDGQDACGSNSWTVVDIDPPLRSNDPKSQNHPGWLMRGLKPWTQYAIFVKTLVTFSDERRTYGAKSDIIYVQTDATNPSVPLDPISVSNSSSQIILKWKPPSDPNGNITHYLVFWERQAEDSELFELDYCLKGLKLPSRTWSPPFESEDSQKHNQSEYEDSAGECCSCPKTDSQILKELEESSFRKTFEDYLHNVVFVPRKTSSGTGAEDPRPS
Insulin receptor, sequence (P06213 763-1382 limits assumed): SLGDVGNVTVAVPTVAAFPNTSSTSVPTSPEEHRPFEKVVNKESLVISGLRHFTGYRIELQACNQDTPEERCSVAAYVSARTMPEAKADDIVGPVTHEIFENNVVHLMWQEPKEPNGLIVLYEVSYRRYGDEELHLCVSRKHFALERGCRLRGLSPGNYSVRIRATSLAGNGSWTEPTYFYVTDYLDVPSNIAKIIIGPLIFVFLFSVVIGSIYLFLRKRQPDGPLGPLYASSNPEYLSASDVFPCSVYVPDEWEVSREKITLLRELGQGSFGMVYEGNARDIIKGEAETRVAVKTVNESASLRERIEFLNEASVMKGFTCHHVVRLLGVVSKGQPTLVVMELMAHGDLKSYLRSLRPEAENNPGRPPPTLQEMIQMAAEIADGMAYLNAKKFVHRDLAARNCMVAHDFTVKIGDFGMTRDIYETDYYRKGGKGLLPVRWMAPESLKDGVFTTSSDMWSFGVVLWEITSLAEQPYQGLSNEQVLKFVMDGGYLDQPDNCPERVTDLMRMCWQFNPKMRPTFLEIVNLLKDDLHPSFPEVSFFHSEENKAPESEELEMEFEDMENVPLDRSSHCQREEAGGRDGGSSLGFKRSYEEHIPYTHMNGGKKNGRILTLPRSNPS
Tyrosine-protein kinase Lyn, sequence (P07948 whole entry, the tested form may be a part): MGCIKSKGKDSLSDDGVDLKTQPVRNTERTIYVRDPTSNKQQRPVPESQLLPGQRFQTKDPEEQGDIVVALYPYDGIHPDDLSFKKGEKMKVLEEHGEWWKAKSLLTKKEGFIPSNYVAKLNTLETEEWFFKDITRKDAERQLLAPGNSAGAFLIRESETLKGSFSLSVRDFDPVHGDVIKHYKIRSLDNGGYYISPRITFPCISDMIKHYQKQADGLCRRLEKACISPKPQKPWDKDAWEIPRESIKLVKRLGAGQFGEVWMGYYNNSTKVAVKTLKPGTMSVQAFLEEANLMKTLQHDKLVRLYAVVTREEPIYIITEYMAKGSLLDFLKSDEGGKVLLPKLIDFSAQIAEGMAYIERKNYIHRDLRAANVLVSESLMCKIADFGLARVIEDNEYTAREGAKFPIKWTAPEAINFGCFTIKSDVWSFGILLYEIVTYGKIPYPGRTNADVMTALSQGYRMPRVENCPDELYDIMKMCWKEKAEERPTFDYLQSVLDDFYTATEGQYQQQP
Proto-oncogene tyrosine-protein kinase Src, sequence (P12931 2-536 limits assumed): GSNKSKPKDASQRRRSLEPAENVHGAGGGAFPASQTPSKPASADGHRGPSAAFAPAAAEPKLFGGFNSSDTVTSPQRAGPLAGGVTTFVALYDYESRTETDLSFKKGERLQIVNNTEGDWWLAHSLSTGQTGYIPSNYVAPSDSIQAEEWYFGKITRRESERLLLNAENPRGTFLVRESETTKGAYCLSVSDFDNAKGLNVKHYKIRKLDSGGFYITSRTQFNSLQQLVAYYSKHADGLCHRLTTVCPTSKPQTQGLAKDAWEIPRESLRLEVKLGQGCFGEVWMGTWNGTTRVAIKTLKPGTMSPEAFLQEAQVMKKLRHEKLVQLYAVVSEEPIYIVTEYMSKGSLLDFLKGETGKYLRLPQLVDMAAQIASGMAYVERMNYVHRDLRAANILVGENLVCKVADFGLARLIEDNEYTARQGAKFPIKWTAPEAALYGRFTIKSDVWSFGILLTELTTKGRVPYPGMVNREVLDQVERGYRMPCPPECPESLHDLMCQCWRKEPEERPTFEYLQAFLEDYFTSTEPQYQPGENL
Focal adhesion kinase 1, sequence (Q05397 whole entry, the tested form may be a part): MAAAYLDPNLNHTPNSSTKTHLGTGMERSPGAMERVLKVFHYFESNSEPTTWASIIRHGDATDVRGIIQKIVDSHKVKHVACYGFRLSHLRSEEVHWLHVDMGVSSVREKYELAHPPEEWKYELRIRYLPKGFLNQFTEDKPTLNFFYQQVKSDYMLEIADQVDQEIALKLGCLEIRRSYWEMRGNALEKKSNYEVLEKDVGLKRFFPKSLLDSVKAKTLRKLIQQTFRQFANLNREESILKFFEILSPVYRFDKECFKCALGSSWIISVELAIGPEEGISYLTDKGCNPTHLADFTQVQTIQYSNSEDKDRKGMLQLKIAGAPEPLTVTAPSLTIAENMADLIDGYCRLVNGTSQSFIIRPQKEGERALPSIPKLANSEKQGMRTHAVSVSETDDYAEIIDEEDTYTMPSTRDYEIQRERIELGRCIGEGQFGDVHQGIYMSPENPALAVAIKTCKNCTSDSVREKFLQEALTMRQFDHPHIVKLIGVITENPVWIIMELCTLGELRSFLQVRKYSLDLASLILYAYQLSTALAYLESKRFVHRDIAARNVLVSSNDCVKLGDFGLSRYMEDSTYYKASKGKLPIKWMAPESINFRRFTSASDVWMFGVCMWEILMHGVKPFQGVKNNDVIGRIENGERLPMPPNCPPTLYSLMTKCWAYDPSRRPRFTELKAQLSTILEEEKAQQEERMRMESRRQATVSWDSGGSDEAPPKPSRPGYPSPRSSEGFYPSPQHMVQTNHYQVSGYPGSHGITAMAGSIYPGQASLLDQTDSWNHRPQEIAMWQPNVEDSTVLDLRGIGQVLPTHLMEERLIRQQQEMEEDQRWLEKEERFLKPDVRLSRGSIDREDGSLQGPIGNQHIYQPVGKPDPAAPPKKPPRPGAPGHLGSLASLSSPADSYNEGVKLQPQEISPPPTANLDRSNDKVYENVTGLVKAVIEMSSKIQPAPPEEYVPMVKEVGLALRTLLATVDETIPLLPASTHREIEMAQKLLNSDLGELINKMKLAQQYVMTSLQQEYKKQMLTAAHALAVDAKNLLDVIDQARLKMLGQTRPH
Tyrosine-protein kinase Yes, sequence (P07947 whole entry, the tested form may be a part): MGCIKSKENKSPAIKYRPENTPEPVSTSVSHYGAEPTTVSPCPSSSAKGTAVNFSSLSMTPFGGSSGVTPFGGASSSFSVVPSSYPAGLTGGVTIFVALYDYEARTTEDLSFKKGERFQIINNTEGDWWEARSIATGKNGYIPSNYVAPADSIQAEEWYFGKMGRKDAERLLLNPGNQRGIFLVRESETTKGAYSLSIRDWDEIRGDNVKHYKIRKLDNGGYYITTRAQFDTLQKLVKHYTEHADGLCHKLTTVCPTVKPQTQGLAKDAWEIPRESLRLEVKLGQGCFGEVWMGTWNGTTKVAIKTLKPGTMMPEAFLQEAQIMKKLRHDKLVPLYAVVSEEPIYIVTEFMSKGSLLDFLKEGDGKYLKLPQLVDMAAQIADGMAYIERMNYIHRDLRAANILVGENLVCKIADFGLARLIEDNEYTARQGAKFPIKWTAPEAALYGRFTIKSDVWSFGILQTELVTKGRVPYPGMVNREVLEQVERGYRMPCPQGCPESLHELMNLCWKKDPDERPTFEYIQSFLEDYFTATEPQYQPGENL

On to `Oc1cnnc(SCc2ccc(Br)cc2)n1`, for which the result in [1] and in data set [2] was Active.

For `Nc1ncnc2c1ncn2[C@@H]1O[C@H](COP(=O)(O)O)[C@@H](O)[C@H]1O` [ADENOSINE PHOSPHATE], the Kd (as a rule, the equilibrium constant for the complex coming apart) in [3] stood at 120 µM; in data set [4] it was 370 µM.

Regarding `COc1cc2ncccc2cc1NC(=O)c1csc2cncnc12`, the figures for the Kd in data set [3] and in [4] were 0.059 µM and 0.15 µM, respectively. For the same compound, the solubility at 24 h in data set [5] and in data set [7] was less than 3 µg/mL throughout. Besides, the inhibition entry in data set [6] is “Active”. Also, the result in data set [8] was Active. Moreover, the IC50 – broadly, the point on the concentration scale where inhibition reaches its midpoint – was more than 50 µM in [9]; more than 50 µM in data set [10]; more than 50 µM in [11]; 0.056 µM in [12]; more than 50 µM in [13]; more than 50 µM in data set [14]. For the same compound, the IC50 in [15], in [16], in [17], in data set [18], in data set [19] and in data set [20] was more than 50 µM throughout. Also, the IC50 in data set [21], in [22], in data set [23], in data set [24], in data set [25] and in [26] was more than 50 µM throughout. In addition, the IC50 in data set [27], in [28], in [29], in data set [30], in data set [31] and in data set [32] was more than 50 µM in each case. For the same compound, the IC50 in data set [33], in data set [34], in [35], in [36], in data set [37] and in [38] was more than 50 µM throughout. Also, the IC50 was more than 50 µM in [39], more than 50 µM in [40], 42 µM in data set [41] and more than 50 µM in [42].

Turning to `Nc1ncnc2c1ncn2[C@@H]1O[C@H](COP(=O)(O)OP(=O)(O)O)[C@@H](O)[C@H]1O` [ADENOSINE DIPHOSPHATE], the results for the Kd in data set [3] and in [4] were 4.1 µM and 63 µM, respectively.

Consider `Nc1ncnc2c1ncn2[C@@H]1O[C@H](COP(=O)(O)OP(=O)(O)OP(=O)(O)O)[C@@H](O)[C@H]1O` [ADENOSINE TRIPHOSPHATE], for which, in data set [3], the Kd worked out at 2.8 µM.

As for `CN1CCN(c2cccc3cc(NC(=O)Nc4ccc(Oc5ccnc6[nH]ccc56)cc4)ccc23)CC1`, in data set [3], the Kd amounted to 0.012 µM.

As for `Nc1ncnc2c1ncn2[C@@H]1O[C@H](CO)[C@@H](O)[C@H]1O` [ADENOSINE], the Kd in [3] came to 4.4 µM; in data set [4] it was 34 µM.
